What was measured:
[1] = test system: Pseudomonas aeruginosa ATCC 15442; test: Quantitative suspension test, log10 reduction in bacterial numbers; assay type: cell-based; settings: 0.5% w/v H2O2; for log reduction: 35° C.
From the text: (§1) Neutralisation (nullification of activity) of antimicrobial agents is required to prevent inhibitory concentrations from being transferred to the recovery medium (as discussed, for example, in Russell A. D. (2004) Factors influencing the efficacy of antimicrobial agents in Principles and Practice of Disinfection Preservation and Sterilization, 4th edition, eds Fraise A. P., Lambert P. A. and Maillard J. Y., pages 98-127, Oxford: Blackwell Publishing Ltd. and Russell A. D., Ahonkhai I. and Rogers, D. T. (1979) A review: microbiological applications of the inactivation of antibiotics and other antimicrobial agents. Journal of Applied Bacteriology, 46, 207-245). Thus, samples were removed at desired time points and then any hydrogen peroxide present in the sample was neutralised (i.e. deactivated) using catalase.
(§2) In the examples, catalase from bovine liver was used to neutralise the activity of any remaining hydrogen peroxide (as described in Russell A. D., Ahonkhai I. and Rogers, D. T. (1979), A review: microbiological applications of the inactivation of antibiotics and other antimicrobial agents, Journal of Applied Bacteriology, 46, 207-245) after the appropriate contact time during the experiments. Control experiments were conducted to establish whether the neutraliser nullified the activity of hydrogen peroxide and whether the neutraliser was toxic to the micro-organisms tested.
(§3) The effect of acidic pH conditions (pH 3.47 to 3.54) were investigated with and without hydrogen peroxide and air.
(§4) A quantitative suspension test (as described in Reybrouck G. (1998), The testing of disinfectants, International Biodeterioration and Biodegradation, 41, 269-272) based on the general principles of European quantitative suspension tests (BS EN1040:2005: Chemical disinfectants and antiseptics, Quantitative suspension test for the evaluation of basic bactericidal activity of chemical disinfectants and antiseptics, Test method and requirements (phase 1), London: British Standards Institute; BS EN 1276:1997: Chemical disinfectants and antiseptics, Quantitative suspension test for the evaluation of bactericidal activity of chemical disinfectants and antiseptics used in food, industrial, domestic, and institutional areas, Test method and requirements (phase 2, step 1). London: British Standards Institute) was used to establish the basic level of activity of the catalyst in the absence of organic matter. All tests were performed independently at least three times unless otherwise stated. Low concentrations (0.2-1% w/v) of hydrogen peroxide were used so that increases in antimicrobial activity could be detected if present.
(§5) Bacteria were inoculated into 10 ml volumes of nutrient broth and incubated at 37° C. for 18 to 24 hours at a shaking speed of 100 revolutions/minute. After incubation, the bacteria were washed by centrifugation to remove the nutrient broth; supernatants were discarded and the bacterial pellets were resuspended in sterilised distilled water. 7.5 ml of the washed bacterial suspension was added to 67.5 ml of hydrogen peroxide and/or distilled water to give a specific final concentration (ranging from 0 to 1% w/v—see Tables below) of hydrogen peroxide and approximately 8 log10 colony forming units (CFU)/mL of bacteria. The resultant mixture was stirred magnetically throughout the experiment. Where applicable, 1 g (+/−0.1 g) of either modified PAN fibre (referred to as PAN1 (control) or PAN2 (control)) or catalyst (referred to as PAN1 catalyst or PAN2 catalyst or PAN3 catalyst) comprising PAN fibres was added to the resultant mixture. The experiments were performed with or without air. If air was used, 2.5 L/min was supplied via. a filtered air pump and a sterilised Pyrex gas distribution tube.
(§6) After a specific contact time (see Tables below), 1 ml aliquots were removed from the experimental flask and transferred into 9 ml of neutraliser (catalase) for 5 minutes to inactivate any remaining hydrogen peroxide.

[2] = test system: Staphylococcus aureus ATCC 6538; test: as above; assay type: cell-based; settings: 1% w/v H2O2
From the text: as §1, §2, §3, §4, §5, §6

[3] = air 2.5 L/min, 50 min, listed as hydrogen peroxide
[4] = no air, 60 min, listed as hydrogen peroxide
[5] = acidic pH 3.47 to 3.54, air 2.5 L/min, 10 min
[6] = acidic pH 3.47 to 3.54, air 2.5 L/min, 20 min
[7] = acidic pH 3.47 to 3.54, air 2.5 L/min, 30 min
[8] = acidic pH 3.47 to 3.54, air 2.5 L/min, 40 min
[9] = acidic pH 3.47 to 3.54, air 2.5 L/min, 50 min
[10] = acidic pH 3.47 to 3.54, air 2.5 L/min, 60 min
[11] = acidic pH 3.47 to 3.54, no air, 10 min
[12] = acidic pH 3.47 to 3.54, no air, 20 min
[13] = acidic pH 3.47 to 3.54, no air, 30 min
[14] = acidic pH 3.47 to 3.54, no air, 40 min
[15] = acidic pH 3.47 to 3.54, no air, 50 min
[16] = acidic pH 3.47 to 3.54, no air, 60 min

**Q.** What does the source list for `OO` [Example H2O2, hydrogen peroxide]?
**A.** Mean log10 reduction in CFU/ml ([1]; air 2.5 L/min, 10 min): 0.36 (0.13) log10 CFU/ml; Mean log10 reduction in CFU/ml ([1]; air 2.5 L/min, 20 min): 0.53 (0.10) log10 CFU/ml; Mean log10 reduction in CFU/ml ([1]; air 2.5 L/min, 30 min): 0.55 (0.18) log10 CFU/ml; Mean log10 reduction in CFU/ml ([1]; air 2.5 L/min, 40 min): 0.59 (0) log10 CFU/ml; Mean log10 reduction in CFU/ml ([1]; air 2.5 L/min, 50 min): 0.72 (0.07) log10 CFU/ml; Mean log10 reduction in CFU/ml [1, 3]: 0.72 log10 CFU/ml; Mean log10 reduction in CFU/ml ([1]; air 2.5 L/min, 60 min): 0.50 (0.09) log10 CFU/ml; Mean log10 reduction in CFU/ml ([1]; air 2.5 L/min, 60 min, listed as hydrogen peroxide): 0.5 log10 CFU/ml; Mean log10 reduction in CFU/ml ([1]; no air, 10 min): 0.52 (0.12) log10 CFU/ml; Mean log10 reduction in CFU/ml ([1]; no air, 20 min): 0.81 (0.24) log10 CFU/ml; Mean log10 reduction in CFU/ml ([1]; no air, 30 min): 0.88 (0.25) log10 CFU/ml; Mean log10 reduction in CFU/ml ([1]; no air, 40 min): 0.86 (0.32) log10 CFU/ml; Mean log10 reduction in CFU/ml ([1]; no air, 50 min): 0.87 (0.28) log10 CFU/ml; Mean log10 reduction in CFU/ml ([1]; no air, 60 min): 0.97 (0.22) log10 CFU/ml; Mean log10 reduction in CFU/ml [1, 4]: 0.97 log10 CFU/ml; log reduction ([1]; not buffered, air, 10 min): 1.80 log; log reduction ([1]; not buffered, air, 20 min): 2.42 log; log reduction ([1]; not buffered, air, 60 min): 3.61 log; log reduction ([1]; not buffered, no air, 10 min): 2.51 log; log reduction ([1]; not buffered, no air, 40 min): 4.15 log; log reduction ([1]; not buffered, no air, 60 min): 4.45 log; Mean log10 reduction in CFU/ml [1, 5]: 2.53 log10 CFU/ml; Mean log10 reduction in CFU/ml [1, 6]: 3.41 log10 CFU/ml; Mean log10 reduction in CFU/ml [1, 7]: 4.25 log10 CFU/ml; Mean log10 reduction in CFU/ml [1, 8]: ≧4.81 log10 CFU/ml; Mean log10 reduction in CFU/ml [1, 9]: ≧5.34 log10 CFU/ml; Mean log10 reduction in CFU/ml ([1]; acidic pH 3.47 to 3.54, air 2.5 L/min, 50 min, listed as hydrogen peroxide): greater than 5 log10 CFU/ml; Mean log10 reduction in CFU/ml [1, 10]: ≧5.34 log10 CFU/ml; Mean log10 reduction in CFU/ml [1, 11]: 2.30 log10 CFU/ml; Mean log10 reduction in CFU/ml [1, 12]: 2.76 log10 CFU/ml; Mean log10 reduction in CFU/ml [1, 13]: 3.71 log10 CFU/ml; Mean log10 reduction in CFU/ml [1, 14]: 3.88 log10 CFU/ml; Mean log10 reduction in CFU/ml [1, 15]: 4.52 log10 CFU/ml; Mean log10 reduction in CFU/ml [1, 16]: 4.83 log10 CFU/ml; Mean log10 reduction in CFU/ml ([1]; room temperature, not buffered, air 2.5 L/min, 10 min): 0.49 log10 CFU/ml; Mean log10 reduction in CFU/ml ([1]; room temperature, not buffered, air 2.5 L/min, 20 min): 0.70 log10 CFU/ml; Mean log10 reduction in CFU/ml ([1]; room temperature, not buffered, air 2.5 L/min, 30 min): 0.70 log10 CFU/ml; Mean log10 reduction in CFU/ml ([1]; room temperature, not buffered, air 2.5 L/min, 40 min): 0.80 log10 CFU/ml; Mean log10 reduction in CFU/ml ([1]; room temperature, not buffered, air 2.5 L/min, 50 min): 0.81 log10 CFU/ml; Mean log10 reduction in CFU/ml ([1]; room temperature, not buffered, air 2.5 L/min, 60 min): 0.63 log10 CFU/ml; Mean log10 reduction in CFU/ml ([1]; room temperature, not buffered, no air, 10 min): 0.58 log10 CFU/ml; Mean log10 reduction in CFU/ml ([1]; room temperature, not buffered, no air, 20 min): 1.00 log10 CFU/ml; Mean log10 reduction in CFU/ml ([1]; room temperature, not buffered, no air, 30 min): 1.00 log10 CFU/ml; Mean log10 reduction in CFU/ml ([1]; room temperature, not buffered, no air, 40 min): 1.00 log10 CFU/ml; Mean log10 reduction in CFU/ml ([1]; room temperature, not buffered, no air, 50 min): 1.02 log10 CFU/ml; Mean log10 reduction in CFU/ml ([1]; room temperature, not buffered, no air, 60 min): 1.12 log10 CFU/ml; Mean log10 reduction in CFU/ml ([2]; air 2.5 L/min, 10 min): 0.61 log10 CFU/ml; Mean log10 reduction in CFU/ml ([2]; air 2.5 L/min, 20 min): 1.27 log10 CFU/ml; Mean log10 reduction in CFU/ml ([2]; air 2.5 L/min, 30 min): 2.57 log10 CFU/ml; Mean log10 reduction in CFU/ml ([2]; air 2.5 L/min, 40 min): 3.84 log10 CFU/ml; Mean log10 reduction in CFU/ml ([2]; air 2.5 L/min, 50 min): 5.07 log10 CFU/ml; Mean log10 reduction in CFU/ml [2, 3]: 5 log10 CFU/ml; Mean log10 reduction in CFU/ml ([2]; air 2.5 L/min, 60 min): 5.40 log10 CFU/ml; Mean log10 reduction in CFU/ml ([2]; no air, 10 min): 0.70 log10 CFU/ml; Mean log10 reduction in CFU/ml ([2]; no air, 20 min): 1.43 log10 CFU/ml; Mean log10 reduction in CFU/ml ([2]; no air, 30 min): 2.88 log10 CFU/ml; Mean log10 reduction in CFU/ml ([2]; no air, 40 min): 3.89 log10 CFU/ml; Mean log10 reduction in CFU/ml ([2]; no air, 50 min): 4.97 log10 CFU/ml; Mean log10 reduction in CFU/ml ([2]; no air, 60 min): 5.37 log10 CFU/ml; Mean log10 reduction in CFU/ml [2, 4]: 5 log10 CFU/ml; Mean log10 reduction in CFU/ml [2, 5]: 1.00 log10 CFU/ml; Mean log10 reduction in CFU/ml [2, 6]: 1.86 log10 CFU/ml; Mean log10 reduction in CFU/ml [2, 7]: 2.33 log10 CFU/ml; Mean log10 reduction in CFU/ml [2, 8]: 2.83 log10 CFU/ml; Mean log10 reduction in CFU/ml [2, 9]: 2.23 log10 CFU/ml; Mean log10 reduction in CFU/ml [2, 10]: 3.45 log10 CFU/ml; Mean log10 reduction in CFU/ml [2, 11]: 0.69 log10 CFU/ml; Mean log10 reduction in CFU/ml [2, 12]: 0.72 log10 CFU/ml; Mean log10 reduction in CFU/ml [2, 13]: 1.30 log10 CFU/ml; Mean log10 reduction in CFU/ml [2, 14]: 2.03 log10 CFU/ml; Mean log10 reduction in CFU/ml [2, 15]: 2.90 log10 CFU/ml; Mean log10 reduction in CFU/ml [2, 16]: 3.23 log10 CFU/ml; Mean log10 reduction in CFU/ml ([2]; room temperature, no air, no catalyst, 10 min): 0.43 log10 CFU/ml; Mean log10 reduction in CFU/ml ([2]; room temperature, no air, no catalyst, 20 min): 1.21 log10 CFU/ml; Mean log10 reduction in CFU/ml ([2]; room temperature, no air, no catalyst, 30 min): 2.25 log10 CFU/ml; Mean log10 reduction in CFU/ml ([2]; room temperature, no air, no catalyst, 40 min): 3.92 log10 CFU/ml; Mean log10 reduction in CFU/ml ([2]; room temperature, no air, no catalyst, 50 min): 4.57 log10 CFU/ml; Mean log10 reduction in CFU/ml ([2]; room temperature, no air, no catalyst, 60 min): 5.10 log10 CFU/ml

From US8513303B2, “Antimicrobial agent” (De Montfort University, priority 2007, dated 2013)
